Test system: complex II+III-linked ATP kinetics, pig brain mitochondria
Experiment: Complex II+III-linked ATP kinetics, bioluminescence
Assay type: biochemical
Conditions: 10 μM drug; mean ± SD
Procedure: Pig brains were obtained from a slaughterhouse. Mitochondrial fraction isolation and purification from brain cortex were performed as previously described. Briefly, grey matter from pig brains was homogenized and crude mitochondrial fraction was isolated and then centrifuged on the sucrose gradient to obtain purified mitochondrial fraction. The freshly purified mitochondria were kept on ice until the assays were performed and were used for measurements of the mitochondrial oxygen consumption rate, measurements of ATP and ROS formation. Frozen mitochondria (stored at −70 °C) were used for the following enzyme activity measurements: ETC complexes, citrate synthase (CS) and malate dehydrogenase (MDH) activity.
The following protocol has been modified and optimized. An ATP Bioluminescence Assay Kit CLS II was used to measure ATP content and kinetics. The luminescence was measured using FluoroMax-3 (Jobin Yvon, Edison, NJ, USA) at 562 nm. Standard curve for ATP determination was prepared from ATP standard in the range from 0 to 600 nM. […]
For ATP kinetics determination MiR05 buffer, mitochondria and drugs were incubated on ice for 20 min and another 10 min at room temperature. Background luminescence was measured. Consequently, the same substrate mixture as mentioned above, and 230 µL of luciferase reagent were added and ATP kinetics was determined by measuring the luminescence for 4 min. […]

CNC1(c2ccccc2Cl)CCCCC1=O (stereo not shown) [ketamine] was tested, and the “complex II+III-linked ATP kinetics (relative to control = 100%)” value was 84.9 ± 5.9%.

From PMC9697131, “Agomelatine, Ketamine and Vortioxetine Attenuate Energy Cell Metabolism—In Vitro Study” (International Journal of Molecular Sciences, 2022)
